From patent publication EP2773641B1, “BIARYL ETHER SULFONAMIDES AND THEIR USE AS THERAPEUTIC AGENTS” (Xenon Pharmaceuticals Inc., priority 2011, dated 2013)
Where two headings read alike, the source gives them in different places.

How the values were obtained:
[1] = molecular target: T1, Nav1.7 (Homo sapiens, UniProt Q15858); experiment: Patch voltage clamp electrophysiology assay, block of the inactivated state of Nav1.7; type: cell-based; conditions: affinity for the inactivated state, HEK-293 cells stably expressing human Nav1.7 with β1 subunit, held at -60 mV
T1 construct: permanently transfected with an expression vector containing the full-length cDNA coding for the desired human sodium channel α-subunit; expressed in transfected cells
T1 sequence (Q15858 1-1977 isoform Q15858-3): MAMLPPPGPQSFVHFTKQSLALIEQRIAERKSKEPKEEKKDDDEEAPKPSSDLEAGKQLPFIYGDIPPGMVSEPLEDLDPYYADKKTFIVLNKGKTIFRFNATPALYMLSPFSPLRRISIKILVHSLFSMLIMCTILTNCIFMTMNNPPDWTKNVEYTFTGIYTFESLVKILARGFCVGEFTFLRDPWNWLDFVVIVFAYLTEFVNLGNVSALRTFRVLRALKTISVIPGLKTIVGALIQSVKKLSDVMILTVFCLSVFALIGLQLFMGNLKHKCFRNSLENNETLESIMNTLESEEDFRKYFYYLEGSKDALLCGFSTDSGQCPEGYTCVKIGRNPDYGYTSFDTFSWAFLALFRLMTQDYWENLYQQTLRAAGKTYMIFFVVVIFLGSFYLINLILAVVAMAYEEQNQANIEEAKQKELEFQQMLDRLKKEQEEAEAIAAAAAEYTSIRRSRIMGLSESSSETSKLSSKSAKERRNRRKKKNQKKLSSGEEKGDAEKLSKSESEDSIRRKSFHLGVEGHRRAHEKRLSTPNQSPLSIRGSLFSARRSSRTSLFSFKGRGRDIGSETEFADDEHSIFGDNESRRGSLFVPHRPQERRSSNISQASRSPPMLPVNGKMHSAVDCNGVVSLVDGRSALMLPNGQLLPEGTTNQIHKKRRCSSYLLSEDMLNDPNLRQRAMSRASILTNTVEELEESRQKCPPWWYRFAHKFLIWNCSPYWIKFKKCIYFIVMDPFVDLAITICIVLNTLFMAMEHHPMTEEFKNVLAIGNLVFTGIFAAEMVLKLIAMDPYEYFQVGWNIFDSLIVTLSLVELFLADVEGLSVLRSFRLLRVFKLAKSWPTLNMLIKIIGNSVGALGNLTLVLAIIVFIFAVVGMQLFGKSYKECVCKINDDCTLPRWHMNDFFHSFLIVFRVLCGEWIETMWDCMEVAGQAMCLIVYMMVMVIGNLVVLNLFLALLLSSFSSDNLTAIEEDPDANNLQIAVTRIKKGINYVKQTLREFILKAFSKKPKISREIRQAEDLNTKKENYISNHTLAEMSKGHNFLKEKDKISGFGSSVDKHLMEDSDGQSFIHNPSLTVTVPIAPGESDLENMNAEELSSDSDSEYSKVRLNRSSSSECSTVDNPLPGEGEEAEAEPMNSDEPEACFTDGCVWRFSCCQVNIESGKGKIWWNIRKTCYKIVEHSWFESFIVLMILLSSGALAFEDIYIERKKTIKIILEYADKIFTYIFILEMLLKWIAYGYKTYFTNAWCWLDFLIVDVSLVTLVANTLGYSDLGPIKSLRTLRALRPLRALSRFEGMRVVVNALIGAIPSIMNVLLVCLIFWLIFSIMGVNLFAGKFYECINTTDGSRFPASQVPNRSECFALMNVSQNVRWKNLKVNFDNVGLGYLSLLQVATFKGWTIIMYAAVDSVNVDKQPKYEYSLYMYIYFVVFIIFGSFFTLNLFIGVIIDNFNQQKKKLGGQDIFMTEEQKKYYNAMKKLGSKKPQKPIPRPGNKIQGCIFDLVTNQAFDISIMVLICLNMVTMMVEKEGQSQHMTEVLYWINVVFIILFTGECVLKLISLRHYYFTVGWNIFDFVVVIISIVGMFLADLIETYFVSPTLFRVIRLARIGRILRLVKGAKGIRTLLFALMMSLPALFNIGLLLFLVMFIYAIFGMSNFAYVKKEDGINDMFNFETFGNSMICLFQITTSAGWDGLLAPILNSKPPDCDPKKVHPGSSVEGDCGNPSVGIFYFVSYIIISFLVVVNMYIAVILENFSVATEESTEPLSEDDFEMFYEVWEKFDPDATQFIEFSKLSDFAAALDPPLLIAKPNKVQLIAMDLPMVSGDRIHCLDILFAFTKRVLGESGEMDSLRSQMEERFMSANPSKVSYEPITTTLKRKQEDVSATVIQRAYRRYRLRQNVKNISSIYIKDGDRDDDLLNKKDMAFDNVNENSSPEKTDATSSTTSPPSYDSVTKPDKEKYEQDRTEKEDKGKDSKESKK
T1 sequence (Q07699 19-218 partner): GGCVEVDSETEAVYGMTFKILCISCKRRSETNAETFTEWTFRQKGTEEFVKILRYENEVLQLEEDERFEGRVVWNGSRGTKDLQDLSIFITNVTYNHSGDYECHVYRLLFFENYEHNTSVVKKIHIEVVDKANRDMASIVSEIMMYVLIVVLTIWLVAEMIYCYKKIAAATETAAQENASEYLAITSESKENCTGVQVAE
Protocol: (§1) The following patch voltage clamp electrophysiology studies were performed on representative compounds of the invention using human embryonic kidney cells (HEK), permanently transfected with an expression vector containing the full-length cDNA coding for the desired human sodium channel α-subunit, grown in culture media containing 10% FBS, 1% PSG, and 0.5 mg/mL G418 at 37 °C with 5% CO2. […] Nav1.7 and Nav1.5 cDNAs (NM_002977 and AC137587; SCN5A, respectively) were stably expressed in HEK-293 cells. The β1 subunit was coexpressed only in the Nav1.7 cell line.
Sodium currents were measured using the patch clamp technique in the whole-cell configuration using either a PatchXpress automated voltage clamp or manually using an Axopatch 200B (Axon Instruments) or Model 2400 (A-M systems) amplifier. […] The pipette was filled with a solution comprised of: 5 mM NaCl, 10 mM CsCl, 120 mM CsF, 0.1 mM CaCl2, 2 mM MgCl2, 10 mM HEPES, 10 mM EGTA; and adjusted to pH 7.2 with CsOH. The external solution had the following composition: 140 mM NaCl, 5 mM KCI, 2 mM CaCl2, 1 mM MgCl2, 10 mM HEPES; and adjusted to pH 7.4 with NaOH. In some studies, the external sodium was reduced by equimolar replacement with choline. Osmolarity in the CsF internal and NaCl external solutions was adjusted to 300 mOsm/kg and 310 mOsm/kg with glucose, respectively. All recordings were performed at ambient temperature in a bath chamber with a volume of 150 µL. Control sodium currents were measured in 0.5% DMSO. Controls and representative compounds of the invention were applied to the recording chamber through a 4-pinch or 8-pinch valve bath perfusion system manufactured by ALA Scientific Instruments.
Series resistance compensation was applied (60-80%). […] All statistics in this study are given as mean ± SD.
The membrane potential was maintained at a voltage where inactivation of the channel is complete (which was -60 mV for both Nav1.7 and Nav1.5). The voltage is then stepped back to a very negative (Vhold = -150mV) voltage for 20 ms and then a test pulse is applied to quantify the compound block. […] The percent decrease in sodium current following wash-on of compound was taken as the percent block of sodium channels.
The Example numbers provided in Table 1 and Table 2 correspond to the Examples herein.

[2] = molecular target: T2, Nav1.5 (Homo sapiens, UniProt Q14524); experiment: Patch voltage clamp electrophysiology assay, block of the inactivated state of Nav1.5; type: cell-based; conditions: IC50 class; affinity for the inactivated state; HEK-293 cells stably expressing human Nav1.5; held at -60 mV
T2 construct: permanently transfected with an expression vector containing the full-length cDNA coding for the desired human sodium channel α-subunit; expressed in transfected cells
T2 sequence (Q14524 whole entry): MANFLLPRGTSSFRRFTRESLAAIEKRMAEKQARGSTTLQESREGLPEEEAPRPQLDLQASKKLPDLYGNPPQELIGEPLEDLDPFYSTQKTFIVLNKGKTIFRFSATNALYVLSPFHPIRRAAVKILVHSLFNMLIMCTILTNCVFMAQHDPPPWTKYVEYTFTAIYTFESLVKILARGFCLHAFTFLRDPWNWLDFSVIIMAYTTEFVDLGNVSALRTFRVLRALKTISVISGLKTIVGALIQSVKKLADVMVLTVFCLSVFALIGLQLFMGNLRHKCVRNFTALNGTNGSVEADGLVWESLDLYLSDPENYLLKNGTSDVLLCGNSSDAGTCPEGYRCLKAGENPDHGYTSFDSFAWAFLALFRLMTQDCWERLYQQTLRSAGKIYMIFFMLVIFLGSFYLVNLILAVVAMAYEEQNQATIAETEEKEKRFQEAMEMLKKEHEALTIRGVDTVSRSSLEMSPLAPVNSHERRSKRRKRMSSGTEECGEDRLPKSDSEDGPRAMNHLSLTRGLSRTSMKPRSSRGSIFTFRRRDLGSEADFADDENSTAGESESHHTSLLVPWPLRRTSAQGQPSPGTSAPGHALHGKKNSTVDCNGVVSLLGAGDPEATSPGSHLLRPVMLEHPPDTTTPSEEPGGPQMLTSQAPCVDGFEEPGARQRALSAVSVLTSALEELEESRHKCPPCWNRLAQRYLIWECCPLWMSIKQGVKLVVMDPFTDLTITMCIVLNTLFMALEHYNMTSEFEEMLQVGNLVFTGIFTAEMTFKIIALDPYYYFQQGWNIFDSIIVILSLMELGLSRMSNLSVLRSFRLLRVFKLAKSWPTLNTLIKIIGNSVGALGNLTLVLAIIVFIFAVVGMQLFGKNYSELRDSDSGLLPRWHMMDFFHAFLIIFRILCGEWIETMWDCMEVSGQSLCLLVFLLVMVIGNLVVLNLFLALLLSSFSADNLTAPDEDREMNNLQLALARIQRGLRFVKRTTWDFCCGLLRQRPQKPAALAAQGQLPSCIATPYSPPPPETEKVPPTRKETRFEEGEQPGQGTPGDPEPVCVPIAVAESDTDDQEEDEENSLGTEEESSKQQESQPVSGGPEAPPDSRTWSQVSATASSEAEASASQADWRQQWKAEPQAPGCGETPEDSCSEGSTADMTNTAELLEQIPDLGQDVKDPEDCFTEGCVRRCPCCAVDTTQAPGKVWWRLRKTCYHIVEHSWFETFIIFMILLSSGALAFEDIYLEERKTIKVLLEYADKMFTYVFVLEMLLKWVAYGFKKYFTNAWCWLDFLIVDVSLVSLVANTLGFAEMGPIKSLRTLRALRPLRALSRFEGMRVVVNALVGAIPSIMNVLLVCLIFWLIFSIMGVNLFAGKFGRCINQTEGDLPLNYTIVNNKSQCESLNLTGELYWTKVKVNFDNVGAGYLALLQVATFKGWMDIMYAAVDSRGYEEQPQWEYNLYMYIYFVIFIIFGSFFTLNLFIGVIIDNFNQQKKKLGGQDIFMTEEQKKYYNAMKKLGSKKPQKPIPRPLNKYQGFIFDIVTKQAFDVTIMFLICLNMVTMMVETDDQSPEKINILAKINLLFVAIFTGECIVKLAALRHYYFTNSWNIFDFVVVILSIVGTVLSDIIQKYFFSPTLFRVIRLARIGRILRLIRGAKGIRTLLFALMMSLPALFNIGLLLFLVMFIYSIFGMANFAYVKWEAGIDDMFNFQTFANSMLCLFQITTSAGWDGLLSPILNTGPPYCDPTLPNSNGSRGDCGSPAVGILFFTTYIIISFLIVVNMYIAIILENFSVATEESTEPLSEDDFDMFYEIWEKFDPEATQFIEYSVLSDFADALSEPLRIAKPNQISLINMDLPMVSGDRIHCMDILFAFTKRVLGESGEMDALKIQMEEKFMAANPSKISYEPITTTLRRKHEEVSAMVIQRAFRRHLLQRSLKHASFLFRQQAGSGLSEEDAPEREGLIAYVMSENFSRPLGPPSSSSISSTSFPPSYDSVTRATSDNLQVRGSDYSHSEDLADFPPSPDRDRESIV
Protocol: Patch voltage clamp electrophysiology allows for the direct measurement and quantification of block of voltage-gated sodium channels (Nav's), and allows the determination of the time- and voltage-dependence of block which has been interpreted as differential binding to the resting, open, and inactivated states of the sodium channel (Hille, B., Journal of General Physiology (1977), 69: 497-515).
as §1
Sodium currents were measured using the patch clamp technique in the whole-cell configuration using either a PatchXpress automated voltage clamp or manually using an Axopatch 200B (Axon Instruments) or Model 2400 (A-M systems) amplifier. The manual voltage clamp protocol was as follows: Borosilicate glass micropipettes were fire-polished to a tip diameter yielding a resistance of 2-4 Mohms in the working solutions. The pipette was filled with a solution comprised of: 5 mM NaCl, 10 mM CsCl, 120 mM CsF, 0.1 mM CaCl2, 2 mM MgCl2, 10 mM HEPES, 10 mM EGTA; and adjusted to pH 7.2 with CsOH. The external solution had the following composition: 140 mM NaCl, 5 mM KCI, 2 mM CaCl2, 1 mM MgCl2, 10 mM HEPES; and adjusted to pH 7.4 with NaOH. In some studies, the external sodium was reduced by equimolar replacement with choline. Osmolarity in the CsF internal and NaCl external solutions was adjusted to 300 mOsm/kg and 310 mOsm/kg with glucose, respectively. All recordings were performed at ambient temperature in a bath chamber with a volume of 150 µL. Control sodium currents were measured in 0.5% DMSO. Controls and representative compounds of the invention were applied to the recording chamber through a 4-pinch or 8-pinch valve bath perfusion system manufactured by ALA Scientific Instruments.
Currents were recorded at 40 kHz sampling frequency, filtered at […], and stored using a Digidata-1322A analogue/digital interface with the pClamp software (Axon Instruments). Series resistance compensation was applied (60-80%). […] All statistics in this study are given as mean ± SD.
The membrane potential was maintained at a voltage where inactivation of the channel is complete (which was -60 mV for both Nav1.7 and Nav1.5). The voltage is then stepped back to a very negative (Vhold = -150mV) voltage for 20 ms and then a test pulse is applied to quantify the compound block. The 20 ms brief repolarization was long enough for compound-free channels to completely recover from fast inactivation, but the compound-bound channels recovered more slowly such that negligible recovery could occur during this interval. The percent decrease in sodium current following wash-on of compound was taken as the percent block of sodium channels.
The Example numbers provided in Table 1 and Table 2 correspond to the Examples herein. TABLE 1: Inhibition of Nav1.7

Row | Structure (SMILES) | IC50 ([1]; read-out: Nav1.7 IC50) [nM] | IC50 ([1]; IC50 class, read-out: Nav1.7) [nM] | IC50 [2] [nM]
1 | O=S(=O)(Nc1ncns1)c1cc(F)c(Oc2ccc(Cl)cc2-c2cccc3nccn23)cc1F [Example 30, 4-(4-chloro-2-(imidazo[1,2-a]pyridin-5-yl)phenoxy)-2,5-difluoro-N-(1,2,4-thiadiazol-5-yl)benzenesulfonamide] | 13.4 |  | > 10000
2 | O=S(=O)(Nc1ncns1)c1cc(F)c(Oc2ccc(Cl)cc2-c2ccnc3nccn23)cc1F [Example 31, 4-(4-chloro-2-(imidazo[1,2-a]pyrimidin-5-yl)phenoxy)-2,5-difluoro-N-(1,2,4-thiadiazol-5-yl)benzenesulfonamide] | 8 |  | > 10000
3 | Cc1ccc(Oc2cc(F)c(S(=O)(=O)Nc3ncns3)cc2F)c(-c2ccc3oc(=O)[nH]c3c2)c1 [Example 82, 2,5-difluoro-4-(4-methyl-2-(2-oxo-2,3-dihydrobenzo[d]oxazol-5-yl)phenoxy)-N-(1,2,4-thiadiazol-5-yl)benzenesulfonamide] | 0.7 |  | 
4 | Nc1noc2ccc(-c3cccnc3Oc3cc(F)c(S(=O)(=O)Nc4ncns4)cc3F)cc12 [Example 86, 4-((3-(3-aminobenzo[d]isoxazol-5-yl)pyridin-2-yl)oxy)-2,5-difluoro-N-(1,2,4-thiadiazol-5-yl)benzenesulfonamide] | 51 | 100 to 1000 | 
5 | CN(C)c1noc2ccc(-c3cc(Cl)ccc3Oc3cc(F)c(S(=O)(=O)Nc4ncns4)cc3F)cc12 [Example 98, 4-(4-chloro-2-(3-(dimethylamino)benzo[d]isoxazol-5-yl)phenoxy)-2,5-difluoro-N-(1,2,4-thiadiazol-5-yl)benzenesulfonamide] | 0.2 |  | 

Continued, in another order:

Row | IC50 ([1]; read-out: Nav1.7 IC50) [nM] | IC50 ([1]; IC50 class, read-out: Nav1.7) [nM] | Structure (SMILES) | IC50 [2] [nM]
6 | 0.3 |  | Nc1nc2cc(-c3cc(Cl)ccc3Oc3cc(F)c(S(=O)(=O)Nc4ncns4)cc3F)ccc2[nH]1 [Example 38, 4-(2-(2-amino-1H-benzo[d]imidazol-5-yl)-4-chlorophenoxy)-2,5-difluoro-N-(1,2,4-thiadiazol-5-yl)benzenesulfonamide] | > 10000
7 | 67.8 | 100 to 1000 | CN(c1ncns1)S(=O)(=O)c1cc(F)c(Oc2ccc(Cl)cc2-c2ccc3[nH]c(N)nc3c2)cc1F [Example 41, 4-(2-(2-amino-1H-benzo[d]imidazol-5-yl)-4-chlorophenoxy)-2,5-difluoro-N-methyl-N-(1,2,4-thiadiazol-5-yl)benzenesulfonamide] | 1000 to 10000
8 | 0.6 |  | Nc1noc2ccc(-c3cc(Cl)ccc3Oc3cc(F)c(S(=O)(=O)Nc4ncns4)cc3F)cc12 [Example 44, 4-(2-(3-aminobenzo[d]isoxazol-5-yl)-4-chlorophenoxy)-2,5-difluoro-N-(1,2,4-thiadiazol-5-yl)benzenesulfonamide] | 1000 to 10000
